Values quoted from earlier work as cited in patent publication US20230184643A1, “METHOD FOR MEASURING OR IDENTIFYING A COMPONENT OF INTEREST IN SPECIMENS” (SHIMADZU CORPORATION, priority 2020, published 2023).
Marks after values point to notes of the source that are not given here.

Conditions: Table 4.1; Drug bank accessed November 2020

LogP: −4.3^a
Structure (SMILES): CN[C@@H]1[C@@H](O)[C@@H](O[C@@H]2[C@@H](O)[C@H](O[C@H]3OC(CN)=CC[C@H]3N)[C@@H](N)C[C@H]2N)OC[C@]1(C)O [Sisomicin]
